In patent publication US20050026836A1, “Composition for the treatment of damaged tissue” (priority 1999, published 2005):
Several values for one entry are separate records, joined by “and”; a condition that tells them apart may be missing. Identical values can stand only once. Like-named read-outs stand apart in the source and are kept apart here.

Tests used:
uPA [1] = molecular target: T1, uPA (Homo sapiens, UniProt P00749); test: biochemical; conditions: for Ki: UPA
Description: A pre-incubation of compound with enzyme is carried out for 15 minutes at 37° C., followed by substrate addition and further incubation for 30 minutes at the same temperature. The final assay volume is 200[…]1.
uPA (urokinase type plasminogen activator) inhibition was assayed by incubating human uPA at 33 IU/ml in 75 mM Tris, pH 8.1, 50 mM NaCl with 180 μM S2444 (substrate) and various concentrations of inhibitors. For the primary screen results, the incubation was performed at 37° C. for 30 minutes.
These assays were carried out in a 96-well plate. […] The incubation was performed after an initial pre-incubation at 37° C. for 15 mins and absorbance was read at 405 nm at 0 mins and at the end of the incubation on a […]ax microplate reader (Molecular Devices Corporation), using SOFTMaxPRO software.

human tPA = molecular target: T2, human tPA (Homo sapiens, UniProt P00750); test: tPA chromogenic inhibition assay (S2288); type: biochemical; conditions: 100 μM compound
T2 construct: Human tPA (one chain) 10 μg/vial (Chromogenix, 821157-039/0); purchased Chromogenix 821157-039/0
T2 sequence (P00750 36-562): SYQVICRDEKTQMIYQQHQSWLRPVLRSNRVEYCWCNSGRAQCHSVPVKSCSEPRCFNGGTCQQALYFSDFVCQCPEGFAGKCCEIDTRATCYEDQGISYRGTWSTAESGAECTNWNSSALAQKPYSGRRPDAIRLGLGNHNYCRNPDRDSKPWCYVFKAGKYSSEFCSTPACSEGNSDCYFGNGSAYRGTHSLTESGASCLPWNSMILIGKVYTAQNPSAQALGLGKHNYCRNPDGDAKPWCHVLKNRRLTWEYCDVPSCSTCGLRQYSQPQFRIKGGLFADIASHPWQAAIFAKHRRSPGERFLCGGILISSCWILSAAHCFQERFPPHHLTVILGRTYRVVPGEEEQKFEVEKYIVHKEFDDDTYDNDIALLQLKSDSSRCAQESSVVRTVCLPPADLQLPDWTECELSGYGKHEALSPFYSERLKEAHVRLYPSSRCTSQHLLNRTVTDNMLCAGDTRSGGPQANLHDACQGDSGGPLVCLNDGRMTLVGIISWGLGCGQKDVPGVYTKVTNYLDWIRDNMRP
Description: The method for analysis of tPA inhibition is similar to that for uPA inhibition. The assay utilises final concentrations of tPA of 0.4 µg/ml with 0.1 mg/ml tPA stimulator, 0.4 mM S2288 (substrate) and various concentrations of inhibitors, made up in uPA assay buffer. Pre-incubation is carried out with compound, enzyme and enzyme stimulator, as for uPA, prior to the incubation with substrate. Incubation time is 60 minutes at performed at 37° C. Data analysis is identical to that described above for uPA, using a known Km for tPA of 250 μM.
The incubation was performed at 37° C. for 60 mins. Percentage inhibition was calculated.

Plasmin = molecular target: T3, Plasmin (Homo sapiens, UniProt P00747); test: Plasmin chromogenic inhibition assay (Chromozym-PL); type: biochemical; conditions: 100 μM compound
T3 construct: Human plasmin, 2 mg/vial (Quadratech, 810665) was reconstituted to 1 mg/ml in buffer; purchased Quadratech 810665
T3 sequence (P00747 581-810 limits assumed): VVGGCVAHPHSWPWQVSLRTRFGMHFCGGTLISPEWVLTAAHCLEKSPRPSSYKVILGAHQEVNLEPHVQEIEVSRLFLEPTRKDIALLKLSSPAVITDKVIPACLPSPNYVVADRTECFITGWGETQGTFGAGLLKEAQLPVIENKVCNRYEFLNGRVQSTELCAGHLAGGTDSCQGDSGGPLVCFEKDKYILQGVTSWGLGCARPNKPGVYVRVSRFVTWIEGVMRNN
T3 sequence (P00747 97-580 partner limits assumed): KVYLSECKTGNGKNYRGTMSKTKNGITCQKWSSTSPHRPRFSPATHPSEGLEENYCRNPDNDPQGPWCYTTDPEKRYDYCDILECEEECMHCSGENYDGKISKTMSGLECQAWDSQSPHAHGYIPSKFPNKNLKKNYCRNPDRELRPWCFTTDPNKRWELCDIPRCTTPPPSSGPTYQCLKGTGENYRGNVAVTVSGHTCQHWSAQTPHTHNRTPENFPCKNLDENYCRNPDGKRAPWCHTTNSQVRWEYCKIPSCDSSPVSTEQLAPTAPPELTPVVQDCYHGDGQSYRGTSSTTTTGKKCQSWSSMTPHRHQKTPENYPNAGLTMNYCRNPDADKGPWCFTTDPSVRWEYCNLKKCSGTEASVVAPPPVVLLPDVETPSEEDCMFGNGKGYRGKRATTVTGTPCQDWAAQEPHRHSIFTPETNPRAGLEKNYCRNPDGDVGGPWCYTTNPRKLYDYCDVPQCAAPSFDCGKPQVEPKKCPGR
Description: Plasmin inhibition is assayed by incubating human plasmin at 0.7 μg/ml with 0.2 mM Chromozym-PL (substrate) and various concentrations of inhibitors in uPA assay buffer. Pre-incubation is carried out as for uPA and the incubation is performed at 37° C. for 30 mins.
The incubation was performed at 37° C. for 30 mins. Percentage inhibition was calculated.

uPA [2] = molecular target: T1, uPA; test: biochemical; conditions: read-out: Percentage inhibition of proteolysis
Description: (§1) The extent of proteolysis of the growth factors was assayed by incubating TGF-β2, VEGF, PDGF-BB and KGF-2 with the proteases uPA, plasmin, MMP-3 and MMP-13 in assay buffer (either uPA/plasmin buffer, 50 mM tris-HCl, pH 7.4 or MMP assay buffer, 100 mM Tris, 10 mM NaCl, 10 mM CaCl2, 0.05% (w/v) Brij 35, pH 7.5). […] The growth factors were added to the incubation mixture at a final concentration of […], unless otherwise stated.
(§2) The effects of uPA were determined by incubation at a typical final concentration of 25 μg/ml (1500 U/ml) with each growth factor. The effects of plasmin were determined at a typical final concentration of 0.1 mg/ml by incubation with the individual growth factors in assay buffer. MMP-3 and -13 were incubated at a typical final concentration of 10 nM with the growth factors in assay buffer. Dual protease assays carried out with uPA and MMP-3 together were performed in 100 mM Tris, […], 10 mM CaCl2, 0.05% (w/v) Brij 35, pH 7.5. All incubations were performed in siliconised tubes (Sigma Aldrich, UK).
(§3) The inhibitors used in these experiments were compound 9454, compound 9470 and compound 5214. These were dissolved in DMSO at a concentration of 10 mM. Typical final concentrations for these inhibitors were in the range of 100 μM to 10 nM. Aprotinin was dissolved in the Tris buffer at 10 mg/ml and used at a typical concentration of 10 μg/ml.
All assays were carried out at 37° C. and enzymes were pre-incubated for 15 minutes with or without inhibitor as appropriate, prior to addition of growth factors. After the addition of growth factor, the incubation mixtures were divided into aliquots in siliconised tubes for each time point used. Incubations were carried out over a time course typically of 24 hours, unless otherwise stated. They were stopped by the addition of an equal volume of 2×Novex reducing loading buffer (final concentration 1.09 M glycerol, 141 mM Tris-base, 106 mM Tris-HCl, 73 mM lithium dodecyl sulphate (LDS), 0.5 mM ethylenediaminetetraacetic acid, 0.22 mM Serva Blue G250, 0.175 mM Phenol Red, pH 8.5) and samples prepared for electrophoresis by incubating at 70° C. for 10 minutes.
LDS-PAGE was performed using the NOVEX Xcell II Mini-Cell gel apparatus (Groningen, Holland) using a variation on the method of Laemmli (1970). Equal volumes of samples were loaded onto NuPage 4-12% Bis-tris gels with molecular weight markers (SeeBlue Plus2 Pre-stained Standards). Molecular weight determination was performed by comparison of bands with markers of molecular weight 3, 6, 14, 17, 28, 38, 49, 62, 98 and 188 kDa. […]

uPA and MMP-3 = test: Inhibition of uPA and MMP-3-mediated KGF-2 degradation (dual protease assay); type: biochemical, human; conditions: uPA and MMP-3 together / KGF-2; inhibitors used (100 μM), alone or in combination
Description: as §1, §2
as §3, with “μg/ml. […]” for “μg/ml.”

[3] = molecular target: T4, catalytic domain of human MMP-9 (Homo sapiens, UniProt P14780); test: MMP-9 fluorogenic inhibition assay; type: biochemical; conditions: read-out: Calculated Ki(nM) MMP-9
T4 sequence (P14780 with tags, fused parts or gaps DEL216-390 limits assumed): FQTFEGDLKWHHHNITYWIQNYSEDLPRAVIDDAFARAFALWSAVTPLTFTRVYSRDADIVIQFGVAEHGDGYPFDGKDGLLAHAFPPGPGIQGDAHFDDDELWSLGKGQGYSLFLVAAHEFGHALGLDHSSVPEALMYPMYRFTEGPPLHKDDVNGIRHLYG
Description: (§4) All enzymes were pre-activated at 37° C. with aminophenylmercuric acetate (APMA) or trypsin before being made up to the final concentrations used in the assay. MMP-1 (30 nM) was activated with 0.93 mM APMA for 20 minutes, MMP-2 (30 nM) was activated with 1.32 mM APMA for 1 hour, MMP-3 (1010 nM) was activated with 1.81 mM APMA for 3 hours or heat activated at 55° C. for three hours, MMP-9 (100 nM) was activated with 2 mM APMA for 2 hours, human MMP-13 (100 nM) was activated with 2 mM APMA for 2 hours, and MMP-14 (900 nM) was activated with 0.9 ng/ml trypsin for 25 minutes, followed by the addition of 4.5 ng/ml trypsin inhibitor.
(§5) For MMP-1, the assay buffer used was 50 mM Tris, 200 mM NaCl, 5 mM CaCl2, 20 μM ZnCl2, 0.05% (w/v) Brij 35, pH 7.5. […] For MMP-13, the assay buffer used was 50 mM Tris, pH 7.5, 200 mM NaCl, 5 mM CaCl2, […] and 0.02% (w/v) Brij 35. For MMP-14, the assay buffer used was 50 mM Tris, 100 mM NaCl, 10 mM CaCl2, 0.25% (w/v) Brij 35, pH 7.5.
MMP-2, MMP-3 and MMP-9 inhibition was assayed by incubating activated catalytic domain of human MMP-2, MMP-3 and MMP-9 at 1 nM in assay buffer with 5 μM substrate Mca-Arg-Pro-Lys-Pro-Tyr-Ala-Nva-Trp-Met-Lys(Dnp)-NH2, and six different concentrations of inhibitor. The incubation was performed at 37° C. for 60 minutes.
(§6) The final assay concentrations of inhibitors used in the MMP-1 assays to determine Ki were 50, 40, 30, 20, 10 and 5 μM. For MMP-2, the final assay concentrations of inhibitors used were 1000, 800, 600, 400, 200 and 100 nM. For MMP-3, the final assay concentrations of inhibitors used were 5, 4, 3, 2, 1 and 0.5 nM. For MMP-9 and MMP-14, the final assay concentrations of inhibitors used were 5, 4, 3, 2, 1 and 0.5 μM.
(§7) All assays were carried out in a black 96-well plate with a final volume of 100 μl in each well. […] For MMP-2, MMP-3, MMP-9 and MMP-14, fluorescence was read every 2 minutes at […] and 393 nm γem for 1 hour using a Fluorostar fluorimeter (BMG) with BIOLISE software. For MMP-1 assays, the filters used were 355 nm γex and 440 nm γem; fluorescence was read every 2 minutes for 1 hour. […]

[4] = molecular target: T5, catalytic domain human MMP-14 (Homo sapiens, UniProt P50281); test: MMP-14 fluorogenic inhibition assay; type: biochemical; conditions: read-out: Calculated Ki(nM) MMP-14
T5 construct: made in house
Description: as §4, §5
MMP-14 inhibition was assayed by incubating activated catalytic domain human MMP-14 at 1 nM in assay buffer with 10 μM Mca-Pro-Leu-Gly-Leu-Dpa-Ala-Arg-NH2 and six concentrations of inhibitor. The incubation was performed at 37° C. for 60 minutes.
as §6
as §7, with “well. Inhibitors were dissolved in dimethylsulphoxide (DMSO) to 1 mM.” for “well.”

[5] = system: circular full thickness lesions; test: Normal wound healing in pigs, full thickness lesions; type: in vivo; conditions: 0.3% w/v formulation in CMC hydrogel, 1 ml topically daily, pig
Description: The experiment was performed in 3 female SPF pigs (crossbreed of Danish country, Duroc and Yorkshire). At start of the acclimatisation period the body weight of the animals was about 30 kg. The lesions were established on day 1. The animals were anaesthetised with Stresnil® Vet. Janssen, Belgium (40 mg azaperone/ml, 1 ml/10 kg), and Atropin DAK, Denmark (1 mg atropine/ml, 0.05 ml/kg), given as a single intramuscular injection followed by i.v. injection of Hypnodil® Janssen, Belgium (50 mg metomidate/ml, 1-2 ml). Eight circular full thickness lesions (diameter 20 mm) were made on the prepared area, four on each side of the spine. The lesions were numbered 1 (most cranial) to 4 (most caudal) on the left side of the animal, and 5 (most cranial) to 8 (most caudal) on the right side of the animal. After surgery and daily thereafter, the test articles were applied as follows: The dosing volume of each dosing was 1 ml. The dressings were changed on a daily basis. Each lesion was observed daily. The outlines of the wound edge and the epithelial edge will be drawn on sterile transparent sheets, and the areas contained inside the edges were measured planimetrically. The measurement of areas was performed by Scan Beam […] processed to give group mean values and standard deviations where appropriate. Possible outliers were identified, too. Each variable was tested for normality by the Shapiro-Wilk method. In case of normal distribution, two-way analysis of variance was carried out for the variable with the factor: animal and treatment, and if significant difference were detected, possible intergroup differences were assessed using the least-squares means. Otherwise the possible intergroup differences were identified with Wilcoxon Rank-Sum test.

[6] = individual determinations, 100 µM
[7] = individual determinations, read-out: % inhibition at 100 μM
[8] = mean ± sem, read-out: % inhibition at 100 μM Mean ± sem

Ki [3] [nM] | Ki [4] [nM] | SMILES | Ki (uPA [1]; Calculated Ki (nM) Mean ± sem, mean ± sem) [nM] | Ki (uPA [1]; Calculated Ki (nM), individual determinations) | Potency as inhibitor of uPA (in words) (uPA [1]; from Table 1) | % inhibition at 100 μM (human tPA; [6]) | inhibition at 100 µM (human tPA; [7]) [%] | inhibition at 100 µM (human tPA; [8]) [%] | % inhibition at 100 μM (Plasmin; [6]) | inhibition at 100 µM (Plasmin; [7]) [%] | inhibition at 100 µM (Plasmin; [8]) [%] | inhibition at 0.1 µM (uPA [2]) [%] | inhibition at 1 µM (uPA [2]) [%] | inhibition at 10 µM (uPA [2]) [%] | inhibition at 100 µM (uPA [2]) [%] | Percentage inhibition of proteolysis (uPA and MMP-3) | Non-epithelialised area MEAN ([5]; DAY 8) | Non-epithelialised area MEAN ([5]; DAY 9) | Non-epithelialised area MEAN ([5]; DAY 10) | Non-epithelialised area MEAN ([5]; DAY 11)
 |  | NC(N)=Nc1ncc(Cl)c2ccc(S(=O)(=O)N3CCCC3C(=O)O)cc12 (centres unmarked) [compound 5214] | 9.9 ± 0.76 | 11 nM and 9.6 nM and 7.8 nM | potent inhibitor of uPA | 47% and 50% | 38 | 45 ± 3.61 | 33% and 28% and 27% | 31 | 29.8 ± 1.38 | 17 | 76 | 83 | 91 | 38.6 |  |  |  | 
0.47 | 3.68 | CNC(=O)[C@@H](Cc1ccccc1)NC(=O)C(CC(C)C)[C@H](CSc1cccs1)C(=O)NO (some centres unmarked) [compound 5719] |  |  |  |  |  |  |  |  |  |  |  |  |  |  | 294.0 | 248.0 | 210.1 | 148.9
